Source: ChEMBL document CHEMBL1201862, “PubChem BioAssay data set” (2004)
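The compound was tested at five concentrations on cells cultured in 96-well plates, with a 48-hour exposure period. Here, GI50 denotes the concentration required for 50% inhibition of growth.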 Active and inactive are the calls of the source. Cut-off read from the data, not from the text of the source: active = GI50 up to about 1.1 µM and inactive = higher.

Assays:
Assay in all cases: DTP human tumour cell line panel, 48 h
A498 = test system: A498
A549 = test system: A549
CAKI-1 = test system: CAKI-1
COLO 205 = test system: COLO 205
DMS-114 = test system: DMS-114
EKVX = test system: EKVX
HCT-116 = test system: HCT-116
HOP-92 = test system: HOP-92
K562 = test system: K562
LOX IMVI = test system: LOX IMVI
LXFL 529 = test system: LXFL 529
Malme-3M = test system: Malme-3M
NCI-H23 = test system: NCI-H23
NCI-H460 = test system: NCI-H460
OVCAR-4 = test system: OVCAR-4
SK-OV-3 = test system: SK-OV-3
SR = test system: SR
U-251 = test system: U-251
UO-31 = test system: UO-31
NCI/ADR-RES = test system: NCI/ADR-RES

Compound | GI50 (A498) | GI50 (A549) | GI50 (CAKI-1) | GI50 (COLO 205) | GI50 (DMS-114) | GI50 (EKVX) | GI50 (HCT-116) | GI50 (HOP-92) | GI50 (K562) | GI50 (LOX IMVI) | GI50 (LXFL 529) | GI50 (Malme-3M) | GI50 (NCI-H23) | GI50 (NCI-H460) | GI50 (OVCAR-4) | GI50 (SK-OV-3) | GI50 (SR) | GI50 (U-251) | GI50 (UO-31) | GI50 (NCI/ADR-RES)
CC1(C)OC2OC(/C=C/[N+](=O)[O-])C3OC(C)(C)OC3C2O1 (stereo not drawn) | 20.5 µM (inactive) | 20.3 µM (inactive) | 4.67 µM (inactive) | 4.6 µM (inactive) | 18.6 µM (inactive) | 20.1 µM (inactive) | 9.06 µM (inactive) | 8.43 µM (inactive) | 6.84 µM (inactive) | 7.5 µM (inactive) | 2.76 µM (inactive) | 5.35 µM (inactive) | 18.7 µM (inactive) | 15.4 µM (inactive) | 16.3 µM (inactive) | 20.6 µM (inactive) | 6.7 µM (inactive) | 17.3 µM (inactive) | 20.4 µM (inactive) | –
Cc1cccc(NC(=O)c2cccc([N+](=O)[O-])c2O)c1C | 28.5 µM (inactive) | 21.5 µM (inactive) | 27.4 µM (inactive) | 18.1 µM (inactive) | 32.4 µM (inactive) | 26.7 µM (inactive) | 28.2 µM (inactive) | 16.4 µM (inactive) | 12.1 µM (inactive) | 23 µM (inactive) | 34 µM (inactive) | 33.8 µM (inactive) | 17.5 µM (inactive) | 20.6 µM (inactive) | 26.6 µM (inactive) | 28.4 µM (inactive) | 20.1 µM (inactive) | 25.3 µM (inactive) | 17.9 µM (inactive) | 16.5 µM (inactive)
N#CCCN(CCC#N)c1ccc(C(Sc2ccccc2)C(NC(=O)c2cc([N+](=O)[O-])ccc2Cl)C(=O)Sc2ccccc2)cc1 (stereo not drawn) | 2.15 µM (inactive) | 2.88 µM (inactive) | 1.45 µM (inactive) | 2.34 µM (inactive) | 2.37 µM (inactive) | 1.34 µM (inactive) | 2.17 µM (inactive) | 5.58 µM (inactive) | 2.39 µM (inactive) | 1.91 µM (inactive) | 3.69 µM (inactive) | 7.33 µM (inactive) | 5.06 µM (inactive) | 4.41 µM (inactive) | 6.15 µM (inactive) | 5.42 µM (inactive) | 1.51 µM (inactive) | 1.23 µM (inactive) | 2.2 µM (inactive) | –
COc1ccc(C(=O)O)c(Cc2ccc3ccccc3c2)c1 | > 100 µM (inactive) | > 100 µM (inactive) | > 100 µM (inactive) | > 100 µM (inactive) | > 100 µM (inactive) | > 100 µM (inactive) | > 100 µM (inactive) | > 100 µM (inactive) | > 100 µM (inactive) | > 100 µM (inactive) | > 100 µM (inactive) | > 100 µM (inactive) | > 100 µM (inactive) | > 100 µM (inactive) | > 100 µM (inactive) | > 100 µM (inactive) | > 100 µM (inactive) | > 100 µM (inactive) | > 100 µM (inactive) | –
COc1c(C)c2c(c3c1c(=O)c1ccccc1n3C)C=CC(C)(C)O2 | 32.7 µM (inactive) | 5.41 µM (inactive) | 26.2 µM (inactive) | 30.7 µM (inactive) | 14.5 µM (inactive) | 47.1 µM (inactive) | 18.5 µM (inactive) | 31.9 µM (inactive) | 13.4 µM (inactive) | 15.2 µM (inactive) | 26 µM (inactive) | 25.8 µM (inactive) | 27.1 µM (inactive) | 18.7 µM (inactive) | – | 12.7 µM (inactive) | 12.5 µM (inactive) | 21.8 µM (inactive) | 26.5 µM (inactive) | –
Cc1ccc2oc(=O)c3c(O)c4cccc(OC5OC(C)C6O[C@@H](c7ccccc7)OC6C5OC5OC(C)C(O)C(O)C5O)c4c4oc(=O)c1c2c34 (stereo partly drawn) | 0.0274 µM (active) | 0.0354 µM (active) | 0.138 µM (active) | 0.0675 µM (active) | 0.262 µM (active) | 0.461 µM (active) | < 0.0171 µM (active) | 0.843 µM (active) | 0.0404 µM (active) | – | 0.0594 µM (active) | 0.441 µM (active) | 0.0492 µM (active) | < 0.0316 µM (active) | 0.32 µM (active) | 0.2 µM (active) | < 0.011 µM (active) | 0.0535 µM (active) | 1.14 µM (inactive) | 3.66 µM (inactive)
COc1ccc2c(c1)CC1c3c(ccc(OC)c3O)CC2N1C (stereo not drawn) | > 100 µM (inactive) | 57.3 µM (inactive) | 40 µM (inactive) | 18.2 µM (inactive) | 19.7 µM (inactive) | 50.9 µM (inactive) | 19.6 µM (inactive) | 28.1 µM (inactive) | 20.4 µM (inactive) | 23.9 µM (inactive) | 18.3 µM (inactive) | 15.7 µM (inactive) | 43.6 µM (inactive) | 19.3 µM (inactive) | 29.4 µM (inactive) | 62.7 µM (inactive) | 15.3 µM (inactive) | 25.1 µM (inactive) | 30.8 µM (inactive) | –
O=C(O)CCC(=O)OCN1C(=O)C2C3C=CC(C2C1=O)C1C2C(=O)N(COC(=O)CCC(=O)O)C(=O)C2C31 (stereo not drawn) | > 100 µM (inactive) | > 100 µM (inactive) | > 100 µM (inactive) | > 57.8 µM (inactive) | > 48.1 µM (inactive) | > 100 µM (inactive) | > 37.8 µM (inactive) | > 100 µM (inactive) | > 100 µM (inactive) | > 45.5 µM (inactive) | > 100 µM (inactive) | > 100 µM (inactive) | > 100 µM (inactive) | 32.5 µM (inactive) | > 100 µM (inactive) | > 100 µM (inactive) | 30.8 µM (inactive) | > 65.8 µM (inactive) | 98.6 µM (inactive) | –
O=C(CCc1cc(-c2ccc(F)cc2)n[nH]1)N(Cc1ccccc1)Cc1ccccc1 | > 100 µM (inactive) | > 100 µM (inactive) | > 100 µM (inactive) | > 100 µM (inactive) | > 100 µM (inactive) | > 100 µM (inactive) | > 100 µM (inactive) | > 100 µM (inactive) | > 100 µM (inactive) | > 100 µM (inactive) | > 100 µM (inactive) | > 100 µM (inactive) | > 100 µM (inactive) | > 100 µM (inactive) | – | > 100 µM (inactive) | 13.8 µM (inactive) | > 100 µM (inactive) | > 100 µM (inactive) | –
CN(C)CC1CC/C(=C\c2ccc3c(c2)OCO3)C1=O (stereo not drawn) | 19 µM (inactive) | 28.2 µM (inactive) | 8.89 µM (inactive) | 8.49 µM (inactive) | 18.4 µM (inactive) | 18.9 µM (inactive) | 6.75 µM (inactive) | 15.1 µM (inactive) | 2.83 µM (inactive) | 1.95 µM (inactive) | 12.6 µM (inactive) | 9.46 µM (inactive) | 9.62 µM (inactive) | 19.5 µM (inactive) | 9.29 µM (inactive) | > 43.1 µM (inactive) | 2.82 µM (inactive) | 18.3 µM (inactive) | 10.6 µM (inactive) | 2.79 µM (inactive)
COC1=C(C(=O)OC(C)(C)C)C23CCCCC2(C(C(=O)OC(C)(C)C)=C(OC)C3C(=O)OC(C)(C)C)C1C(=O)OC(C)(C)C (stereo not drawn) | > 100 µM (inactive) | 23 µM (inactive) | > 100 µM (inactive) | 10.4 µM (inactive) | 9.84 µM (inactive) | 50.7 µM (inactive) | 14.2 µM (inactive) | 7.05 µM (inactive) | 9.64 µM (inactive) | 34.4 µM (inactive) | 23.2 µM (inactive) | 55.8 µM (inactive) | 21.5 µM (inactive) | 11.5 µM (inactive) | 9.12 µM (inactive) | > 100 µM (inactive) | 19.6 µM (inactive) | 49.9 µM (inactive) | 9.35 µM (inactive) | –
COc1cccc(N2C(=O)c3c(c4[nH]c5ccccc5c4c4ccc(C(C)(C)C)cc34)C2=O)c1 | > 100 µM (inactive) | > 100 µM (inactive) | > 100 µM (inactive) | > 100 µM (inactive) | > 100 µM (inactive) | > 100 µM (inactive) | > 100 µM (inactive) | > 100 µM (inactive) | > 100 µM (inactive) | > 100 µM (inactive) | > 100 µM (inactive) | > 100 µM (inactive) | > 100 µM (inactive) | > 100 µM (inactive) | > 100 µM (inactive) | > 100 µM (inactive) | > 100 µM (inactive) | > 100 µM (inactive) | > 100 µM (inactive) | –
C#CCN1CCN(C(=S)N/N=C(\C)c2ccccn2)CC1 | 2.15 µM (inactive) | 3.12 µM (inactive) | 1.42 µM (inactive) | 0.01 µM (active) | 0.01 µM (active) | 0.0792 µM (active) | 0.001 µM (active) | 0.166 µM (active) | 0.01 µM (active) | 0.01 µM (active) | 0.001 µM (active) | 1 µM (active) | 0.01 µM (active) | 0.619 µM (active) | 0.35 µM (active) | 0.877 µM (active) | 0.011 µM (active) | 0.0189 µM (active) | 0.634 µM (active) | 0.01 µM (active)
